Results taken from patent US20110039763A1, “TARGETED ANTIMICROBIAL MOIETIES” (C3 JIAN, INC., priority 2009, published 2011).
“Also recorded” adds a separate entry of the source. Bridge positions count the residues as written; N and C are the ends. Square brackets hold non-standard residues; d marks the D form. Ends that are not written are not given here. Peptide text beside a SMILES is read from it. I, II: the chains in the order shown. Aoc = NCCCCCCCC(=O)O

Experiments:
[1] = tested on: S. mutans; experiment: Post-antibiotic effect assay, S. mutans; type: cell-based, Streptococcus mutans; settings: S. mutans monoculture; peptide 10 min, then fresh medium; FIG. 17A
Protocol: The activity and selectivity of MH-STAMPs after a 10 min incubation was determined by growth retardation experiments against targeted and untargeted bacteria in monocultures, as described previously (Id.). Cells from overnight cultures were diluted to ˜5×10^6 cfu/mL in MH (or TH with 1% sucrose for S. mutans), normalized by OD600 0.05-0.1 and seeded to 96-well plates. Cultures were then grown under the appropriate conditions for 2 h (3 h for S. mutans) prior to the addition of peptides for 10 min. Plates were then centrifuged at 3000×g for 5 min, the supernatants discarded, fresh medium returned (MH or TH without sucrose for S. mutans), and incubation resumed. Bacterial growth after treatment was then monitored over time by OD600.
MH-STAMP antimicrobial kinetics was ascertained utilizing a variation of the classical post-antibiotic effect assay, which measures the ability of an agent to affect an organism's growth after a short exposure period. Monocultures of MH-STAMP-targeted and untargeted organisms were exposed to M8(KH)-20, M8(BL)-20, BL(KH)-20, or unmodified BD2.20, then allowed to recover. […] Furthermore, replacement of the targeting region with a non-binding peptide abolishes specific activity.

[2] = tested on: Mixed planktonic populations of P. aeruginosa, E. coli, S. epidermidis, and S. mutans; experiment: Microbial population shift assay; type: cell-based; settings: mixed culture, 10 μM peptide, 24 h, detection limit 200 cfu/mL, FIG. 18
Protocol: Peptide (10 μM) or mock-treatment (1×PBS) was then added and samples were incubated at 37° C. for 24 h under anaerobic conditions (80% N2, 15% CO2, 5% H2). […] Plates were then incubated 37° C. under aerobic conditions (TH plates were incubated anaerobically) and colonies counted after 24 h to determine survivors. […] Gram stains and direct microscopic observation (from select isolated colonies) were undertaken to confirm species identity (data not shown). The detection limit of the assay was 200 cfu/mL.
We hypothesized that potential MH-STAMP dual-functionality could affect a particular set of bacteria within a mixed population, thereby promoting the outgrowth of non-targeted organisms and “shifting” the constituent makeup. To examine this possibility, defined mixed populations of planktonic cells were treated continuously and the make-up of the community examined after 24 h.

[3] = tested on: microorganisms; experiment: Peptide activities: targeting/binding, antimicrobial, growth or phenotype altering (Tables 7, 8); type: cell-based; settings: peptides having multiple activities
[4] = tested on: microorganisms; experiment: Targeting peptide binding to target microorganisms (Tables 3, 10, 12); settings: microorganism(s) the targeting peptide binds, preferably 1x PBS
[5] = tested on: C. difficile; experiment: MIC test / antimicrobial activity, C. difficile; type: cell-based, Clostridium difficile
Protocol: (§1) The active AMPs, STAMPs and the like can be identified and/or validated using an in vitro screening assay.
(§2) It will be appreciated that other assays as are well known in the art or that will become apparent to those having skill in the art upon review of this disclosure may also be used to identify active AMPs. Such assays include, for example, the assay described in Lehrer et al. (1988) J. Immunol.
(§3) Peptides were evaluated for basic antimicrobial activity by broth microdilution, as described previously (Eckert et al. (2006) Antimicrob Agents Chemother., 50: 3651-3657; Eckert et al. (2006) Antimicrob Agents Chemother., 50: 1480-1488). Briefly, ˜1×10^5 cfu/mL bacteria were diluted in TH (S. mutans), or Mueller-Hinton (MH) broth (all other organisms) and distributed to 96-well plates. Serially-diluted (2-fold) peptides were then added and the plates incubated at 37° C. for 18-24 h. […] All experiments were conducted 10 times.

[6] = tested on: microorganisms; experiment: Morphology, biofilm and growth disrupting peptides (Table 5); type: cell-based; set-up: key: A: Peptide aggregates; B: Less hyphal formation; Clumps; Diffuse clumps and small polyps; F: Diffuse growth; H: Thin; I: Growth inhibition; Microcolony formation; Rippled; Small polyps; Thick; W: Halo formation on top, microlonies on bottom
Excerpt: In certain embodiments peptides that induce alterations in phenotype or other biological activities can also be used as antimicrobial effector moieties.

[7] = tested on: S. mutans; experiment: MIC test (broth microdilution) / antimicrobial activity, S. mutans; type: cell-based, Streptococcus mutans
Protocol: as §1, §2, §3

[8] = tested on: S. epidermidis; experiment: MIC test (broth microdilution) / antimicrobial activity, S. epidermidis; type: cell-based, Staphylococcus epidermidis; settings: S. epidermidis
Protocol: as §1, §2, §3

[9] = tested on: E. coli; experiment: MIC test (broth microdilution) / antimicrobial activity, E. coli; type: cell-based, Escherichia coli
Protocol: as §1, §2, §3

[10] = tested on: MRSA; experiment: MIC test / antimicrobial activity, MRSA; type: cell-based, Methicillin-resistant Staphylococcus aureus
Protocol: as §1, §2, §3

[11] = tested on: S. pneumoniae; experiment: MIC test / antimicrobial activity, S. pneumoniae; type: cell-based, Streptococcus pneumoniae
Protocol: as §1, §2, §3

[12] = tested on: P. aeruginosa; experiment: MIC test (broth microdilution) / antimicrobial activity, P. aeruginosa; type: cell-based, Pseudomonas aeruginosa; settings: P. aeruginosa
Protocol: as §1, §2, §3

[13] = tested on: A. baumannii; experiment: MIC test / antimicrobial activity, A. baumannii; type: cell-based, Acinetobacter baumannii
Protocol: as §1, §2, §3

[14] = tested on: C. albicans; experiment: MIC test / antimicrobial activity, C. albicans; type: cell-based, Candida albicans
Protocol: as §1, §2, §3

[15] = tested on: T. rubrum; experiment: MIC test / antimicrobial activity, T. rubrum; type: cell-based, Trichophyton rubrum
Protocol: as §1, §2, §3

[16] = tested on: B. subtilis; experiment: MIC test / antimicrobial activity, B. subtilis; type: cell-based, Bacillus subtilis; settings: B. subtilis
Protocol: as §1, §2, §3

[17] = tested on: S. mutans; experiment: Anti-S. mutans STAMP activity in vitro, incl. formulations; type: cell-based, Streptococcus mutans
Excerpt: During the course of evaluating STAMPs, antimicrobial peptides (AMPs), and binding peptides for desired activity, it was discovered that certain formulations can attenuate or promote peptide activity, as compared to activity levels in a default buffer system (1×PBS). In some cases, 1×PBS may provide the best level of activity. Below are a number of formulations that alter, or may alter, peptide or STAMP activity. For complex buffer systems, assume the base solvent is water unless otherwise stated.
All show potent selective activity against their bacterial targets in vitro, including against biofilm forms. When tested, STAMPs have little cytotoxicity against cell lines in vitro.
It was a surprising discovery that certain anti-S. mutans STAMPs required a salt in the formulation (e.g., PBS) for optimum activity. […] Suitable PBS formulations ranged from 0.5×PBS to about 2.5×PBS with an activity optimum at about 1×PBS. Similar results are believed to obtain for other anti-S. mutans STAMPS as well as a number of other STAMPs. In certain embodiments STAMP stability in solution was improved by inclusion of fluoride in mouthrinse.

[18] = binding in aqueous buffers varied with peptide solubility

CC[C@H](C)[C@H](NC(=O)[C@H](Cc1ccccc1)NC(=O)CCCCCCCNC(=O)[C@H](CCCCNC(=O)CNC(=O)CNC(=O)CNC(=O)[C@H](C)NC(=O)[C@H](CCC(=O)O)NC(=O)[C@H](CC(N)=O)NC(=O)[C@H](C)NC(=O)[C@H](C)NC(=O)[C@@H](N)CC(=O)O)NC(=O)CNC(=O)CNC(=O)CNC(=O)[C@H](CCCNC(=N)N)NC(=O)[C@H](CC(N)=O)NC(=O)[C@H](CC(C)C)NC(=O)[C@H](Cc1ccccc1)NC(=O)[C@H](CCCNC(=N)N)NC(=O)[C@H](Cc1ccccc1)NC(=O)[C@H](Cc1ccccc1)NC(=O)[C@@H](NC(C)=O)[C@@H](C)O)C(=O)N[C@@H](CCCNC(=N)N)C(=O)N[C@@H](CCCCN)C(=O)N[C@@H](Cc1ccccc1)C(=O)N[C@@H](CC(C)C)C(=O)N[C@@H](CCCCN)C(=O)N[C@@H](CCCCN)C(=O)N[C@@H](Cc1c[nH]c2ccccc12)C(=O)N[C@@H](CC(C)C)C(=O)N[C@@H](CC(C)C)C(N)=O [M8(BL)-20] (I: Ac-TFFRFLNRGGGK[Aoc]FIRKFLKKWLL-NH2 / II: H-DAANEAGGG; amide I:12-II:C)
growth after treatment (culture recovery, OD600) [1]: effectively retarded
surviving P. aeruginosa ([2]; input ~0.5×10^4 cfu/mL): not affected or affected to a lesser extent
surviving E. coli ([2]; input ~2×10^4 cfu/mL): not affected or affected to a lesser extent
surviving S. epidermidis ([2]; input ~2×10^4 cfu/mL): not affected or affected to a lesser extent
surviving S. mutans ([2]; input ~6×10^4 cfu/mL): greatly reduced compared to input cfu/mL

FELVDWLETNLGKILKSKSA-NH2 [PF-522]
Activities [3]: G B M
Target(s) [4, 18]: S. epidermidis; also recorded: E. coli; also recorded: P. aeruginosa; also recorded: S. pneumoniae; also recorded: E. faecalis
Organism MIC (μM) [5]: C. difficile, 25 μM
Organism, effect ([6]; S. pneumoniae): S. pneumoniae (H)

FESKILNASKELDKEKKVNTALSFNSHQDFAKAYQNGKI [PF-606]
Organism MIC (μM) [7]: S. mutans, 50 μM
Organism MIC (μM) [8]: S. epidermidis, 50 μM
Organism MIC (μM) [9]: E. coli, 50 μM
Activities [3]: G M
Organism MIC (μM) [10]: MRSA, 50 μM
Organism, effect ([6]; C. albicans): C. albicans (B)
Organism, effect ([6]; MRSA): MRSA (I)
Organism, effect ([6]; S. epidermidis): S. epidermidis (I)
Organism, effect ([6]; S. mutans): S. mutans (I)
Organism, effect ([6]; S. pneumoniae): S. pneumoniae (H)
Organism MIC (μM) [11]: S. pneumoniae, 50 μM

FIRKFLQKLHL [K-16]
Organism MIC (μM) [7]: S. mutans, 8 μM
Organism MIC (μM) [10]: MRSA, 25 μM
Organism MIC (μM) [12]: P. aeruginosa, 12.5 μM

KNKKQTDILEKVKEILDKKKKTKSVGQKLY [PF-538]
Organism MIC (μM) [13]: A. baumannii, 25 μM
Activities [3]: G M
Organism MIC (μM) [5]: C. difficile, 25 μM
Organism, effect ([6]; S. pneumoniae): S. pneumoniae (H)

LSLATFAKIFMTRSNWSLKRFNRL [PF-278]
Organism MIC (μM) [8]: S. epidermidis, 50 μM
Organism MIC (μM) [14]: C. albicans, 50 μM
Organism MIC (μM) [15]: T. rubrum, 50 μM
Activities [3]: G B M
Target(s) [4, 18]: M. luteus; also recorded: A. baumannii
Organism, effect: C. albicans ([6]; C. albicans): C. albicans (B)
Organism, effect: M. luteus ([6]; M. luteus): M. luteus (R)
Organism, effect: S. epidermidis ([6]; S. epidermidis): S. epidermidis (I)

MGIIAGIIKFIKGLIEKFTGK [PF-006]
Organism MIC (μM) [13]: A. baumannii, 50 μM
Organism MIC (μM) [16]: B. subtilis, 25 μM
Activities [3]: G B M
Organism MIC (μM) [10]: MRSA, 50 μM
Target(s) ([4]; binding in aqueous buffers that varied with peptide solubility): S. epidermidis and M. luteus and E. coli and P. aeruginosa and MRSA and E. faecalis and C. jeikeium and C. jejuni
Organism, effect: B. subtilis [6]: B. subtilis (I)
Organism, effect: C. jejuni ([6]; C. jejuni): C. jejuni (D)
Organism, effect: M. luteus ([6]; M. luteus): M. luteus (A)
Organism, effect: MRSA ([6]; MRSA): MRSA (I)
Organism, effect: S. epidermidis ([6]; S. epidermidis): S. epidermidis (D)
Organism, effect: S. pneumoniae ([6]; S. pneumoniae): S. pneumoniae (R)

MIRIRSPTKKKLNRNSISDWKSNTSGRFFY [PF-283]
Organism MIC (μM) [8]: S. epidermidis, 50 μM
Organism MIC (μM) [15]: T. rubrum, 50 μM
Organism MIC (μM) [16]: B. subtilis, 50 μM
Activities [3]: G B M
Target(s) [4, 18]: B. subtilis; also recorded: B. fragilis; also recorded: C. difficile
Organism, effect: B. subtilis [6]: B. subtilis (H)
Organism, effect: S. epidermidis ([6]; S. epidermidis): S. epidermidis (H)

MKRRRCNWCGKLFYLEEKSKEAYCCKECRKKAKKVKK [PF-307]
Organism MIC (μM) [14]: C. albicans, 50 μM
Organism MIC (μM) [15]: T. rubrum, 50 μM
Organism MIC (μM) [16]: B. subtilis, 50 μM
Activities [3]: G B M
Target(s) [4, 18]: S. epidermidis; also recorded: B. subtilis; also recorded: B. fragilis; also recorded: C. difficile
Organism, effect: B. subtilis [6]: B. subtilis (H)
Organism, effect: C. albicans ([6]; C. albicans): C. albicans (B)
Organism, effect: S. epidermidis ([6]; S. epidermidis): S. epidermidis (T)

SKFKVLRKIIIKEYKGELMLSIQKQR [PF-530]
Organism MIC (μM) [13]: A. baumannii, 25 μM
Activities [3]: G M
Organism, effect ([6]; E. coli): E. coli (R)
Organism, effect ([6]; E. faecalis): E. faecalis (C)
Organism, effect ([6]; MRSA): MRSA (C)
Organism, effect ([6]; S. epidermidis): S. epidermidis (H)
Organism, effect ([6]; S. pneumoniae): S. pneumoniae (R)

TFFRLFNRSFTQALGKGGGKNLRIIRKGIHIIKKY* [C16G2]
STAMP activity in formulation ([17]; phosphate buffered saline (PBS) formulation, 0.5×PBS to about 2.5×PBS, optimum at about 1×PBS): active
STAMP activity in formulation ([17]; water-based salt-free buffers and nanoemulsions): substantially inactive

TKKIELKRFVDAFVKKSYENYILERELKKLIKAINEELPTK [PF-600]
Organism MIC (μM) [9]: E. coli, 50 μM
Activities [3]: G B M
Organism, effect ([6]; E. coli): E. coli (H)
Organism, effect ([6]; M. luteus): M. luteus (C)
Organism, effect ([6]; MRSA): MRSA (M)
Organism, effect ([6]; S. epidermidis): S. epidermidis (C)
Organism, effect ([6]; S. mutans): S. mutans (S)
Organism, effect ([6]; S. pneumoniae): S. pneumoniae (R)
Organism MIC (μM) [11]: S. pneumoniae, 50 μM
